Source: patent US6063782A, “Pyrrolopyridazine derivatives” (Sankyo Company, Limited, priority 1994, dated 2000)
Where a name gives a salt, the structure may show the parent alone.

What was measured:
[1] = test system: gastric acid secretion; assay: Gastric acid secretion activity test using pyloric ligation in rats (Shay rat method); format: in vivo; conditions: male SD rats, 20 mg/kg injected into the duodenal region, 4 hours, result given in words only
Description: Gastric acid secretion activity test using pyloric ligation in rats (Shay rat method)
Pyloric ligation was conducted based on the method of Shay et al. [Gastroenterology, 5, 43 (1945)]. Male rats of SD strain were fasted for 24 hours; their abdomens were sectioned during anesthesia under ether. The duodenal and pyloric regions were exposed and the latter was ligated. A solution of a test compound (10 mg/ml) prepared by use of 1.5w parts of dimethylacetamide, 68.5% parts of polyethyleneglycol (PEG-400) and 30% parts of physiological saline solution, was injected into the duodenal region for the dose to be 20 mg/kg by use of a 1-ml syringe and an injection needle (26G). After injection of the test compound, the abdominal region was sutured. The animals were allowed to a stand for 4 hours without feeding food and water and then sacrified with carbon dioxide gas. The stomach was excised and gastric juice was gathered. The gastric juice sample was centrifuged (4° C., 2500 rpm, 15 minutes). The amount of the supernatant was measured to be as the gastric secretion. The acidity of the gastric juice was determined by the amount (ml) of 0.01 N sodium hydroxide solution required for titration of 0.1 ml of the supernatant to pH 7.0 by use of-an auto-titrating apparatus. The value of gastric acid secretion was calculated from the value of gastric secretion and the acidity of gastric juice. The inhibiting rate was obtained from the values of gastric acid secretion of the control group and of the administered group.

[2] = test system: Helicobacter pylori strains 9470, 9472 and 9474; assay: Antibacterial activity against Helicobacter pylori; format: cell-based; conditions: strains 9470, 9472 and 9474, 37° C., 3 days, slightly aerobic; result given in words only
Description: Antibacterial activity against Helicobacter pylori The antibacterial activity of the compounds of the present invention were evaluated by measuring the minimum inhibitory concentration values (MIC) of the present compounds against Helicobacter pylori strains 9470, 9472 and 9474. These strains of Helicobacter pylori were incubated for 4 days on a plate medium. The medium was prepared by dissolving brain heart infusion agar (Product of DIFCO) in a defined amount of distilled water, by sterilization in an autoclave, injecting horse blood (Product of Nihon Seibutsu Zairyo Co.) into each plate for the medium to contain 7% of the blood and by solidifying. Under slightly aerobic conditions, Helicobacter pylori cultivated at 37° C. for 4 days was suspended in a physiological saline solution for its inocular size to be about 10^8 CFU/ml. The suspension was diluted 100 times, and about 10 μl of the diluted suspension was inoculated on a medium for MIC determination. The medium for MIC determination used had the same compounds as those for preculture. […] In a similar way to the preculture, Helicobacter pylori was cultivated at 37° C. for 3 days under slightly aerobic conditions. […] The minimum concentration which gave no bacterial growth was regarded as MIC of the compound of the present invention.

[3] = target: proton.potassium-adenosine triphosphatase (H+.K+-ATPase) (Sus scrofa, UniProt P19156); assay: Proton.potassium-adenosine triphosphatase (H+.K+-ATPase) inhibition test; format: biochemical; conditions: microsomal fraction of porcine gastric mucosa, pH=6.85, 37° C.; result given in words only
Description: Proton.potassium-adenosine triphosphatase (H^+.K^+ -ATPase) activation test
According to the method reported by Sachs et al. [J. Biol. Chem., 251, 7690 (1976)], a microsomal fraction obtained from homogenized fresh porcine gastric mucosa by density gradient ultracentrifugation was used as the proton.potassium-adenosine triphosphatase preparation, 10 μl of a solution of a test compound in dimethylsulfoxide were added to 0.75 ml of 70 mM tris-HCl buffer solution (magnesium chloride 5 mM, potassium chloride 20 mM and pH=6.85) containing from 30 to 80 μg/ml (in terms of protein concentration) of the enzyme preparation and the mixture was incubated for 45 minutes at 37° C. with shaking at 200 times per minute. The enzyme reaction was initiated by adding 0.25 ml of 8 mM disodium adenosine triphosphate solution. After 20 minutes of the reaction time, the reaction was stopped by adding 1 ml of a 10k trichloroacetic acid-active carbon (100 mg) solution. The reaction solution was centrifuged (4° C., 3000 rpm, 15 minutes) and the inorganic phosphate in the supernatant prepared from adenosine triphosphate by hydrolysis was measured by colorimetry, according to the method of Yoda and Hokin [Biochem. Biophys. Res. Commun., 40, 880 (1970)]. In a similar manner, the amount of inorganic phosphate was measured in a reaction solution in the absence of potassium chloride. From the difference between the phosphate amounts in the presence and absence of potassium chloride, the proton-potassium-adenosine triphosphatase activity was calculated. Based on the activity value in the control and the values in the test compound at the various concentrations tested, the inhibiting rates (%) and then the 50? inhibiting concentrations (IC50) to proton.potassium-adenosine triphosphatase activity were obtained.

proton.potassium-adenosine triphosphatase (H+.K+-ATPase), sequence (P19156 whole entry): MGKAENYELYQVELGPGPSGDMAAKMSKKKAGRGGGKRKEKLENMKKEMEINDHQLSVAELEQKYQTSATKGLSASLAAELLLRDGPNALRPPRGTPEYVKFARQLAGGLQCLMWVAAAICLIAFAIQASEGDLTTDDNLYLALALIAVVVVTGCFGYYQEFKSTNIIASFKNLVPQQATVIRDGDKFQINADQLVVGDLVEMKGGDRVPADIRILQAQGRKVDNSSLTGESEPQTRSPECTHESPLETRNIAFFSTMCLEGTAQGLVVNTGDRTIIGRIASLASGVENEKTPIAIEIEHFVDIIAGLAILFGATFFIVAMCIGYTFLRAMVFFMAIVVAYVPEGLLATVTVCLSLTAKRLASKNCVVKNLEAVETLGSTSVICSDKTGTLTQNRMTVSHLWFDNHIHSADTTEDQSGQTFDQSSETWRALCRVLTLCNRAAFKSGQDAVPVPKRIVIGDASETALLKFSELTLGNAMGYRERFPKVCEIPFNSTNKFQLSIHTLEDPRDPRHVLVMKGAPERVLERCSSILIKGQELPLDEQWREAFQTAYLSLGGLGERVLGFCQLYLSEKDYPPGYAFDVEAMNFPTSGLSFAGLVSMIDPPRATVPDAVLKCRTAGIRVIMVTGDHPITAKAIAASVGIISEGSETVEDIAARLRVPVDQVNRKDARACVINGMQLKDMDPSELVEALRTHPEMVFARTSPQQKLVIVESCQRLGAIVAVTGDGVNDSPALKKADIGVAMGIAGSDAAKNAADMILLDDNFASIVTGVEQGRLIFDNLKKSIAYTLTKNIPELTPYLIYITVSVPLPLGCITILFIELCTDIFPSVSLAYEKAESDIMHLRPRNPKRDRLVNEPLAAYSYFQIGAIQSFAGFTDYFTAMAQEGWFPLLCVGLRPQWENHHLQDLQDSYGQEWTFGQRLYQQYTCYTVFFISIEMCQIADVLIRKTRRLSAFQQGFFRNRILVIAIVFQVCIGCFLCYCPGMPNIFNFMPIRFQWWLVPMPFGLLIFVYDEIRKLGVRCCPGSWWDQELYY
proton.potassium-adenosine triphosphatase (H+.K+-ATPase), sequence (P18434 whole entry partner): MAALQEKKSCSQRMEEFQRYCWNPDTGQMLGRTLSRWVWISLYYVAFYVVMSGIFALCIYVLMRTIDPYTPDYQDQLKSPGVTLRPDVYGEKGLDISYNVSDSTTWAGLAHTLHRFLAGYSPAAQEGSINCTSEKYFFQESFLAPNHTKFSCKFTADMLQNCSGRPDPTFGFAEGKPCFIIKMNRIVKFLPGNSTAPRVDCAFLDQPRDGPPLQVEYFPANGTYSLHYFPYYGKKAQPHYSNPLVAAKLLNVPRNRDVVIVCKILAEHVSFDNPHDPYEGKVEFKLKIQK

| minimum inhibitory concentration (MIC) against Helicobacter pylori [2] | inhibiting concentrations (IC50) to proton.potassium-adenosine triphosphatase activity [3] | Compound | inhibiting rate of gastric acid secretion [1] |
| --- | --- | --- | --- |
| excellent antibacterial activity | excellent activity | CC=CCn1c(C)c(C)c2cnnc(OCc3ccc(Cl)cc3F)c21 [Example 48, 1-(2-Butenyl)-7-(4-chloro-2-fluorobenzyloxy)-2,3-dimethylpyrrolo[2,3-d]pyridazine] | excellent activity |
| excellent antibacterial activity | excellent activity | CC=CCn1c(C)c(C)c2cnnc(OCc3c(Cl)cccc3Cl)c21 [Example 49, 1-(2-Butenyl)-7-(2,6-dichlorobenzyloxy)-2,3-dimethylpyrrolo[2,3-d]pyridazine] | – |
| excellent antibacterial activity | excellent activity | CC=CCn1c(C)c(C)c2cnnc(OCc3ccc(F)cc3F)c21 [Example 22, 1-(2-Butenyl)-7-(2,4-difluorobenzyloxy)-2,3-dimethylpyrrolo[2,3-d]pyridazine] | excellent activity |
| excellent antibacterial activity | excellent activity | CC=CCn1c(C)c(C)c2cnnc(OCc3ccc(F)cc3)c21 [Example 1, 1-(2-Butenyl)-7-(4-fluorobenzyloxy)-2,3-dimethylpyrrolo[2,3-d]pyridazine] | excellent activity |
| excellent antibacterial activity | excellent activity | C=CCn1c(C)c(C)c2cnnc(OCc3ccc(Cl)cc3Cl)c21 [Example 17, 7-(2,4-Dichlorobenzyloxy)-2,3-dimethyl-1-(2-propenyl)pyrrolo[2,3-d]pyridazine] | excellent activity |
| excellent antibacterial activity | excellent activity | CC=CCn1c(C)c(C)c2cnnc(OCc3ccc(Cl)cc3Cl)c21 [Example 21, 1-(2-Butenyl)-7-(2,4-dichlorobenzyloxy)-2,3-dimethylpyrrolo[2,3-d]pyridazine] | – |

Continued, compound first:

| Compound | minimum inhibitory concentration (MIC) against Helicobacter pylori [2] | inhibiting concentrations (IC50) to proton.potassium-adenosine triphosphatase activity [3] | inhibiting rate of gastric acid secretion [1] |
| --- | --- | --- | --- |
| C=CCn1c(C)c(C)c2cnnc(OCc3ccc(F)cc3F)c21 [Example 9, 7-(2,4-Difluorobenzyloxy)-2,3-dimethyl-1-(2-propenyl)pyrrolo[2,3-d]pyridazine] | excellent antibacterial activity | excellent activity | excellent activity |
| C/C=C/Cn1c(C)c(C)c2cnnc(OCc3ccc(F)cc3)c21 [Example 74, 1-(2-Butenyl)-7-(4-fluorobenzyloxy)-2,3-dimethylpyrrolo[2,3-d]pyridazine hydrochloride] | – | excellent activity | – |
| CC=CCn1c(C)c(C)c2c[n+]([O-])nc(OCc3ccc(F)cc3)c21 [Example 75, 1-(2-Butenyl)-7-(4-fluorobenzyloxy)-2,3-dimethylpyrrolo[2,3-d]pyridazine-5-oxide] | excellent antibacterial activity | excellent activity | – |
| CC=CCn1c(C)c(C)c2c[n+]([O-])nc(OCc3ccc(F)cc3F)c21 [Example 76, 1-(2-Butenyl)--7-(2,4-difluorobenzyloxy)-2,3-dimethylpyrrolo[2,3-d]pyridazine-5-oxide] | excellent antibacterial activity | excellent activity | – |
| C=CCn1c(C)c(C)c2cnnc(OCc3ccccc3)c21 [Example 3, 7-Benzyloxy-2,3-dimethyl-1-(2-propenyl)pyrrolo[2,3-d]pyridazine] | excellent antibacterial activity | – | excellent activity |
| Cc1c(C)n(C[C@@H]2C[C@H]2C)c2c(OCc3ccc(F)cc3F)nncc12 (relative stereo) [Example 58, 7-(2,4-Difluorobenzyloxy)-2,3-dimethyl-1-(2-methylcyclopropylmethyl)pyrrolo[2,3-d]pyridazine] | excellent antibacterial activity | excellent activity | excellent activity |
| Cc1c(C)n(C[C@@H]2C[C@H]2C)c2c(OCc3ccc(F)cc3)nncc12 (relative stereo) [Example 57, 7-(4-Fluorobenzyloxy)-2,3-dimethyl-1-(2-methylcyclopropylmethyl)pyrrolo[2,3-d]pyridazine] | excellent antibacterial activity | excellent activity | excellent activity |
| C=CCn1c(C)c(C)c2cnnc(OCc3ccc(Cl)cc3)c21 [Example 12, 7-(4-Chlorobenzyloxy)-2,3-dimethyl-1-(2-propenyl)povrrolo[2,3-d]pyridazine] | excellent antibacterial activity | – | excellent activity |
| Cc1c(C)n(CC2CC2)c2c(OCc3ccc(F)cc3)nncc12 [Example 35, 1-Cyclopropylmethyl-7-(4-fluorobenzyloxy)-2,3-dimethylpyrrolo[2,3-d]pyridazine] | – | excellent activity | excellent activity |
| CC/C=C/Cn1c(C)c(C)c2cnnc(OCc3ccccc3)c21 [Example 11, 7-Benzyloxy-2,3-dimethyl-1-(2-pentenyl)pyrrolo[2,3-d]pyridazine] | excellent antibacterial activity | – | excellent activity |
| Cc1c(C)n(CC2CC2)c2c(OCc3ccccc3)nncc12 [Example 4, 7-Benzyloxy-1-cyclopropylmethyl-2,3-dimethylpyrrolo[2,3-d]pyridazine] | excellent antibacterial activity | excellent activity | – |
| C/C=C/n1c(C)c(C)c2cnnc(OCc3ccc(F)cc3)c21 [Example 44, 7-(4-Fluorobenzyloxy)-2,3-dimethyl-1-(1-propenyl)-pyrrolo[2,3-d]pyridazine] | excellent antibacterial activity | excellent activity | excellent activity |
| Cc1c(C)n(C2CC2)c2c(OCc3ccccc3)nncc12 [Example 16, 7-Benzyloxy-1-cyclopropyl-2,3-dimethylpyrrolo[2,3-d]pyridazine] | excellent antibacterial activity | – | excellent activity |
